The term IC50 denotes the concentration needed to halve the response being measured. Broadly, the Ki is the dissociation constant of the complex between target and ligand, obtained from inhibition or displacement.

Experiment [1] addresses Matrix metalloproteinase-14 (Homo sapiens, UniProt P50281).
The target of experiment [2] is Matrix metalloproteinase-9 (Homo sapiens, UniProt P14780).
The target in another experiment is Stromelysin-1 (Homo sapiens, UniProt P08254).
Stromelysin-1, sequence (P08254 whole entry): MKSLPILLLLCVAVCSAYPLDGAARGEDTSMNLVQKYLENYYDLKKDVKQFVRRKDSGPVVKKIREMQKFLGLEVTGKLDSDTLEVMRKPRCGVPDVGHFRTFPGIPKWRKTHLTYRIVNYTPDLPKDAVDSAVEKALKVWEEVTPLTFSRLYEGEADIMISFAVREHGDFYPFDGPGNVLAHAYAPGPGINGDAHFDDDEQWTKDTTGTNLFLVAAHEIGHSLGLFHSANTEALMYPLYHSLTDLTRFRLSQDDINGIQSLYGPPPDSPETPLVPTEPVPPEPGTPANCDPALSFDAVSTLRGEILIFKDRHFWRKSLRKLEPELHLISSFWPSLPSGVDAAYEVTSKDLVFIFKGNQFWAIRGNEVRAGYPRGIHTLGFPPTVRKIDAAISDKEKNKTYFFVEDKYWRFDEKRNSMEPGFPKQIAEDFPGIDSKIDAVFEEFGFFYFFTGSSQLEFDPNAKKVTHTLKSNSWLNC

Matrix metalloproteinase-9, sequence (P14780 whole entry): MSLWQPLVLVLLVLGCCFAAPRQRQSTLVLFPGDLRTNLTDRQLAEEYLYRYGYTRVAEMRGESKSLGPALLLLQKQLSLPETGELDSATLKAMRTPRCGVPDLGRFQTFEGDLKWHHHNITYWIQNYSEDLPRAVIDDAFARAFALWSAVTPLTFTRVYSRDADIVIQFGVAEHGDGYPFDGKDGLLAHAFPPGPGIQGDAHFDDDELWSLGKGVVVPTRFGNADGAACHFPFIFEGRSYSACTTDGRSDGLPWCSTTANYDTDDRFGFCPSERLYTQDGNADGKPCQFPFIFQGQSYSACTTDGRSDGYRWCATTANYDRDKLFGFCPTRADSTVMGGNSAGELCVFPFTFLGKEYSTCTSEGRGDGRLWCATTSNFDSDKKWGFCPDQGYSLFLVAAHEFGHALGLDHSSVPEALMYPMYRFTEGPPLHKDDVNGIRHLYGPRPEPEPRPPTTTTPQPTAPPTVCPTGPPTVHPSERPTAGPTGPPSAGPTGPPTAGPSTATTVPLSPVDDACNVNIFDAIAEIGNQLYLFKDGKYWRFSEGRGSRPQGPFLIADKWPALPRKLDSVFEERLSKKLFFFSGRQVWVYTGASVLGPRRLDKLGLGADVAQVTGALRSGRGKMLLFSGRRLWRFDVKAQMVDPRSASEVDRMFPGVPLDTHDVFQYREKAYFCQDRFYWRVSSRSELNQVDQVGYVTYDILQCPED

Take `CNC(=O)[C@H](Cc1ccccc1)NC(=O)[C@H](CC(C)C)[C@H](CSc1cccs1)C(=O)NO` [BATIMASTAT]: the figures for the IC50 in experiment [1] and in experiment [2] were 2.9 nM and 0.67 nM, respectively. On Stromelysin-1, `CNC(=O)[C@H](Cc1c[nH]c2ccccc12)NC(=O)[C@@H](CC(=O)NO)CC(C)C` [ILOMASTAT] showed a Ki of 26 nM.

These data come from ChEMBL document CHEMBL1134202, “Selectivity of inhibition of matrix metalloproteases MMP-3 and MMP-2 by succinyl hydroxamates and their carboxylic acid analogues is dependent on P3' group chirality” (Bioorg Med Chem Lett, 2001).
